Experimental data taken from PubChem BioAssay (NCI).
Several values for one entry are separate records, joined by “and”; a condition that tells them apart may be missing. Equal entries are not always repeated.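 Tested at 5 concentrations; 48 h exposure; 96-well plates; endpoints linearly interpolated, else capped at highest concentration. GI50: concentration for 50% inhibition of growth. TGI: concentration producing complete growth inhibition.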

Tests used:
Assay in all cases: DTP human tumour cell line panel, 48 h
OVCAR-3 ovarian = tested on: OVCAR-3 ovarian
UACC-62 melanoma = tested on: UACC-62 melanoma
UO-31 renal = tested on: UO-31 renal
DU-145 prostate = tested on: DU-145 prostate
SN12C renal = tested on: SN12C renal
RPMI-8226 leukemia = tested on: RPMI-8226 leukemia
HT29 colon = tested on: HT29 colon
UACC-257 melanoma = tested on: UACC-257 melanoma
SF-295 CNS = tested on: SF-295 CNS
ACHN renal = tested on: ACHN renal

Structure (SMILES) | GI50 (OVCAR-3 ovarian) | TGI (OVCAR-3 ovarian) | GI50 (UACC-62 melanoma) | TGI (UACC-62 melanoma) | GI50 (UO-31 renal) | TGI (UO-31 renal) | GI50 (DU-145 prostate) | TGI (DU-145 prostate) | GI50 (SN12C renal) | TGI (SN12C renal) | GI50 (RPMI-8226 leukemia) | TGI (RPMI-8226 leukemia) | GI50 (HT29 colon) | TGI (HT29 colon) | GI50 (UACC-257 melanoma) | TGI (UACC-257 melanoma) | GI50 (SF-295 CNS) | TGI (SF-295 CNS) | GI50 (ACHN renal) | TGI (ACHN renal)
Cc1ccc(NC(=O)c2ccc(NC3=C(Cl)C(=O)N(Cc4ccccc4)C3=O)cc2)cc1Cl | 3.6 µM | 18.7 µM | 15.5 µM | 59.9 µM | 1.41 µM | 2.71 µM | 0.624 µM | 7.73 µM | 3.87 µM | 20.5 µM | 3.58 µM | 16.5 µM | 6.81 µM | 51.3 µM | 13.3 µM | 35.8 µM | 19.9 µM | > 100 µM | 12.6 µM | 25.1 µM
COC(=O)C1=Nc2ccc(F)cc2/C1=C/c1sc(=S)[nH]c1O | 0.0441 µM | 3.66 µM | 0.248 µM | > 47 µM | 0.457 µM | 5.14 µM | 0.222 µM | > 36.2 µM | 0.354 µM | > 26.3 µM | 0.305 µM | 3.92 µM | 0.559 µM | 11.9 µM | 6.13 µM | > 100 µM | 0.125 µM | 13.2 µM | 0.0697 µM | 18 µM
CC1(C)N=C(N)N=C(N)N1c1ccc(OCCCCNC(=O)Nc2cccc(S(=O)(=O)F)c2)c(Cl)c1 | 6.89 µM | > 100 µM | 0.491 µM | > 100 µM | 40.5 µM | > 100 µM | 3.83 µM | > 100 µM | 0.577 µM | > 100 µM | 3 µM | 93.3 µM | 0.611 µM | > 100 µM | 3.73 µM | > 100 µM | 5.59 µM | > 100 µM | 22.3 µM | > 100 µM
CC/C(=C(/c1ccc(/C=C/C(=O)O)cc1)c1ccc2[nH]ncc2c1)c1ccc(F)cc1Cl | 11.8 µM | 24.9 µM | 5.85 µM | 21.8 µM | 11.2 µM | 24.7 µM | 14.4 µM | 27.6 µM | 14.7 µM | 44.6 µM | 7.72 µM | 41 µM | 13.3 µM | 32.4 µM | 17.4 µM | 43.2 µM | 7.81 µM | 21.1 µM | 9.16 µM | 24.3 µM
Cc1cc2c(cc1C)[n+](=O)c(C(=O)/C=C/c1ccccc1[N+](=O)[O-])c(C)n2[O-] | – | > 97 µM | – | 75.3 µM | – | > 100 µM | – | > 100 µM | – | > 100 µM | – | > 100 µM | – | > 100 µM | – | > 100 µM | – | 64.6 µM | – | 66.9 µM
CCC1=C(c2ccc(OC)cc2)CC[C@]2(CCNC2=O)[C@@H]1C | – | 61.4 µM | – | 67.1 µM | – | 66.3 µM | – | > 100 µM | – | > 96.3 µM | – | 45.7 µM | – | 59.6 µM | – | 79.1 µM | – | > 100 µM | – | 66.8 µM
N=C(N)c1ccc(OCCCCCOc2ccc(C(=N)N)cc2)cc1 | 5.25 µM | 15.4 µM and 34.9 µM and 37 µM | 2.02 µM | 9.38 µM and 23.6 µM and 29.6 µM | – | > 100 µM | 5.64 µM | 11.9 µM and 27.9 µM and 28.7 µM | 2.02 µM | 34.2 µM and 25 µM and 24.7 µM | 3.81 µM and 22.6 µM and 6.87 µM | > 100 µM | 5.05 µM and 15.8 µM and 35.5 µM | > 50 µM and 60.4 µM and > 100 µM | 4.44 µM and 7.51 µM and 15.5 µM | 26.3 µM and 23.7 µM and 48.9 µM | – | 19.7 µM and 21.3 µM and 77.1 µM | 18.5 µM | > 50 µM and 79.2 µM and > 100 µM
CC(C)c1cc(C(C)C)c(Cl)c(Cl)c1O (tested in a mixture with another compound) | – | 60.1 µM | – | 44 µM | – | 57.7 µM | – | > 100 µM | – | 54.4 µM | – | > 100 µM | – | 58.8 µM | – | 39.3 µM | – | 40.9 µM | – | 57.6 µM
Nc1ccn([C@@H]2S[C@H](CO)[C@@H](O)[C@@H]2F)c(=O)n1 | > 51.1 µM | > 100 µM | 0.372 µM | > 38.2 µM | 0.0356 µM | – | 0.0424 µM | > 100 µM | 0.0405 µM | > 100 µM | 2.65 µM | > 100 µM | 0.178 µM | > 100 µM | 1.34 µM | > 100 µM | 0.452 µM | > 24.7 µM | 0.0271 µM | –
O=C(CN(/C=C/C(=O)C(F)(F)F)c1ccccc1)c1ccc(F)cc1 | 25.8 µM | 68.7 µM | 13 µM | 26.9 µM | 33.8 µM | > 100 µM | 50 µM | > 100 µM | 21.2 µM | 54.9 µM | 19.3 µM | 54 µM | 38.9 µM | > 100 µM | 19.1 µM | 93.2 µM | 20.8 µM | 69.6 µM | 22.3 µM | 69.4 µM
O=CC(O)C(O)C(OC1OC(CO)C(O)C(O)C1O)C(O)CO (stereo unspecified) (tested in a mixture with another compound) | – | > 100 µM | – | > 100 µM | – | > 100 µM | – | > 100 µM | – | > 100 µM | – | 59.2 µM | – | > 100 µM | – | > 100 µM | – | > 100 µM | – | > 100 µM
COc1cc2c(cc1OC)C(SC)C(=O)N(Cc1cccc(OC)c1OC)CC2 (stereo unspecified) | – | 7.03 µM | – | 30.2 µM | – | 70 µM | – | > 23 µM | – | > 100 µM | – | 47.5 µM | – | 17.1 µM | – | 32.2 µM | – | > 43.6 µM | – | > 81.6 µM
Nc1n[nH]c2ccc([C@@H]3Nc4c(F)cc5[nH]ncc5c4[C@H]4C5CCC(C5)[C@@H]34)cc12 (stereo partly specified) | 0.216 µM | 0.735 µM | 0.242 µM | > 44.9 µM | 0.587 µM | > 52.6 µM | 0.419 µM | > 46.2 µM | 0.544 µM | > 54.9 µM | 0.472 µM | 24.6 µM | 0.317 µM | > 34.4 µM | 7.78 µM | > 79.3 µM | 0.11 µM | 18.4 µM | 0.912 µM | > 64.7 µM
CN1CC[C@]23c4c5ccc(O)c4OC2c2[nH]ncc2C[C@H]3[C@H]1C5 (stereo partly specified) | – | > 100 µM | – | > 100 µM | – | > 100 µM | – | > 100 µM | – | > 100 µM | – | > 100 µM | – | > 100 µM | – | > 100 µM | – | > 100 µM | – | > 100 µM
Cn1c(CC(O)c2nc3ccccc3n2C)nc2ccccc21 (stereo unspecified) | – | > 19.4 µM | – | > 61.5 µM | – | > 9.39 µM | – | > 21.7 µM | – | > 57.9 µM | – | > 19.1 µM | – | > 54.3 µM | – | > 47.8 µM | – | > 100 µM | – | > 33.9 µM
